Key:
[1] = system: P388/CPT; test: Chemosensitivity of camptothecin-resistant i.p. P388/CPT leukemia, increase in life span; format: in vivo, mice; conditions: for %ILS: P388/CPT, highest non-toxic dose
Procedure: (§1) Cross-resistance was measured in murine leukemia cell lines.
(§2) ILS=100×[(median day of death (MDD) of treated mice)−(MDD control mice)]÷(MDD control mice)
(§3) Table III tabulates the results from this study.

[2] = system: Colon Adenocarcinoma C51; test: CPT-11, cisplatin and combination, three-arm study in mice bearing colon adenocarcinoma C51; conditions: for LCK / HNTD Dose: C51 sc; for T/C: tumor growth delay
Procedure: This efficacy may be quantified, for example, by the log10 cell kill, which is determined by the following formula: […]
An agent is considered to be active if log10 cell kill is greater than or equal to 0.7. An agent is considered to be very active if the log10 cell kill is greater than 2.8.
In the first arm, four dose levels of CPT-11 were given orally on days four through seven, twice daily. […] This third arm illustrated an example of semi-simultaneous administration.
The LD10 for the single agent was obtained by plotting the toxicity of that agent and the dosage in mg/kg as a log probit graph. Subsequently, the CTI LD10 was obtained by plotting as a log probit graph the observed lethality and the corresponding CTI calculated as the sum of the fraction of the LD10 of each single agent.

[3] = Tolerance and maximum tolerated dose of oral vs i.v. irinotecan in tumor bearing mice; format: in vivo; conditions: all five tumor models, three mice strains
Procedure: (§4) The effectiveness of irinotecan combination chemotherapy methods were tested in a dose response study in a murine tumor model. Three arms were evaluated for tolerance and efficacy. Tolerance was measured by mortality, body weight loss at nadir, host recovery time, and combination toxicity index. Efficacy end points for solid tumor models were tumor growth delay (T/C), log10 cell kill (LCK, defined above), tumor regressions (i.e., complete remission (CR), or partial remission (PR)). For non-solid tumors, such as leukemia, efficacy was measured as the increase in life span (ILS).

[4] = system: Glasgow osteosarcoma (GOS); test: CPT-11 i.v. with oxaliplatin i.v., GOS sc; format: in vivo, mice
Procedure: as §4

[5] = system: P388; test: Chemosensitivity of P388 leukemia, increase in life span; format: in vivo, mice; conditions: P388, agent i.v., highest non-toxic dose
Procedure: as §1, §2, §3

[6] = system: Glasgow osteosarcoma (GOS); test: CPT-11 p.o. with oxaliplatin i.v., GOS sc; format: in vivo, mice; conditions: days 4-8
Procedure: as §4

[7] = CPT-11 p.o. 31.5 mg/kg/adm, days 4-7 twice/day
[8] = CPT-11 p.o. 50.8 mg/kg/adm, days 4-7 twice/day
[9] = Cisplatin i.v. 1.9 mg/kg/adm, days 4, 7
[10] = Cisplatin i.v. 3.1 mg/kg/adm, days 4, 7

CC[C@@]1(O)C(=O)OCc2c1cc1n(c2=O)Cc2cc3ccccc3nc2-1 [CPT, camptothecin]
Comment (sensitivity of P388/CPT) ([1]; agent s.c.): resistant

CCc1c2c(nc3ccc(OC(=O)N4CCC(N5CCCCC5)CC4)cc13)-c1cc3c(c(=O)n1C2)COC(=O)[C@]3(O)CC [CPT-11, irinotecan]
LCK ([2]; CPT-11 p.o. alone at HNTD, days 4-7, twice daily): 1.1 | HNTD Dose ([2]; CPT-11 p.o. alone, days 4-7, twice daily): 406 mg/kg | Comments [2, 7]: Marginal Activity | Log10 cell kill [2, 7]: 0.7 | Time for Median tumor to reach 1000 mg [2, 7]: 25.5 days | T/C [2, 7]: 6.0 days | Time for Median tumor to reach 1000 mg [2, 8]: 29.4 days | T/C [2, 8]: 9.9 days | efficacy in tumor bearing mice, oral vs i.v. administration [3]: similar | Comment (sensitivity of P388/CPT) ([1]; agent i.v.): resistant | HNTD Dose ([4]; CPT-11 i.v. alone, days 3, 5, 7 twice daily): 349.8 mg/kg

N.N.[Cl][Pt][Cl] [Cisplatin, cis-diaminedichloroplatinum]
LCK ([2]; cisplatin i.v. alone at HNTD, days 4, 7): 3.3 | HNTD Dose ([2]; cisplatin i.v. alone, days 4, 7): 6.2 mg/kg | Log10 cell kill [2, 9]: 1.3 | Time for Median tumor to reach 1000 mg [2, 9]: 30.8 days | T/C [2, 9]: 11.3 days | Log10 cell kill [2, 10]: 3.3 | Time for Median tumor to reach 1000 mg [2, 10]: 48.1 days | T/C [2, 10]: 28.6 days | %ILS [5]: 73% | %ILS ([1]; agent i.v.): 153% | Comment (sensitivity of P388/CPT) ([1]; agent i.v.): sensitive

O=C1[O][Pt]2([NH][C@@H]3CCCC[C@H]3[NH]2)[O]C1=O [Oxaliplatin, oxaliplatin]
%ILS [5]: 0% | %ILS ([1]; agent i.v.): 86% | Comment (sensitivity of P388/CPT) ([1]; agent i.v.): sensitive | LCK ([4]; oxaliplatin i.v. alone at HNTD, days 3, 5, 7): 2.3 | HNTD Dose ([4]; oxaliplatin i.v. alone, days 3, 5, 7): 10.2 mg/kg | LCK ([6]; oxaliplatin i.v. alone at HNTD): 2.0 | HNTD Dose ([6]; oxaliplatin i.v. alone): 16.0 mg/kg

— patent US6545010B2, “Composition comprising camptothecin or a camptothecin derivative and a platin derivative for the treatment of cancer” (priority 2000, dated 2003)
